Measurements as given in patent US20160367623A1, “AGONISTS OF GUANYLATE CYCLASE USEFUL FOR THE TREATMENT OF GASTROINTESTINAL DISORDERS, INFLAMMATION, CANCER AND OTHER DISORDERS” (priority 2015, published 2016).
Bridge positions count the residues as written; N and C are the ends. Ends that are not written are not given here.

Legend:
[1] = system: patients with chronic idiopathic constipation (CIC); test: First phase 3 CIC trial: stool consistency, Bristol Stool Form Scale (BSFS) change from baseline; type: in vivo, human; conditions: for Change from Baseline in Stool Consistency, Difference from Placebo: overall 12-week; for Change from Baseline in Stool Consistency (BSFS), LS Mean (SE): overall average across the 12-week treatment period, ITT; for mean increase from baseline in BSFS score: placebo 0.77
From the text: (§1) Both trials include a two-week pre-treatment baseline period, a 12-week treatment period, and a two-week post-treatment period. The phase 3 CIC program was designed to support regulatory submission in the U. S.
(§2) Patients were selected using Rome 3 criteria modified for CIC and had (1) fewer than 3 defecations per week, (2) loose stools occurring rarely without laxatives, (3) inadequate criteria for irritable bowel syndrome with constipation (IBS-C), and (4) at least two of the following applied to at least 25% of defecations: (a) straining during evacuation, (b) lumpy or hard stools, (c) sensation of anorectal obstruction or blockage. Rome 3 requires patients to fulfill the criteria for the last 3 months with symptom onset at least 6 months prior to diagnosis.

[2] = system: patients with chronic idiopathic constipation (CIC); test: Second phase 3 CIC trial: durable overall CSBM responders; type: in vivo, human; conditions: MRA; for Difference in Proportions (adjusted), durable overall CSBM responders / Odds Ratio (adjusted), durable overall CSBM responders: adjusted for gender
From the text: as §1
The primary endpoint for both trials is the proportion of durable overall responders (%), which is the current regulatory endpoint required for U.S. approval in CIC. The FDA has defined a durable overall responder as a patient who fulfills both ≧3 complete spontaneous bowel movements (CSBMs) per week plus an increase of ≧1 CSBM from baseline in the same week, for 9 out of the 12 treatment weeks. In addition, the same patient must be an overall responder for at least 3 of the last 4 treatment weeks in order to be considered a durable overall responder.
as §2

[3] = system: patients with chronic idiopathic constipation (CIC); test: Second phase 3 CIC trial: patient disposition, reasons for discontinuation; conditions: All Randomized
[4] = Active Combined (N = 877), ITT Population-Excluding Duplicate Patients
[5] = Active Combined (N = 892), ITT Population
[6] = Active Combined (N = 941), All Randomized (includes Duplicate Patients)
[7] = Plecanatide 3 mg (N = 434), ITT Population-Excluding Duplicate Patients
[8] = Plecanatide 3 mg (N = 443), ITT Population
[9] = Plecanatide 3 mg (N = 470), All Randomized (includes Duplicate Patients)
[10] = Plecanatide 6 mg (N = 443), ITT Population-Excluding Duplicate Patients
[11] = Plecanatide 6 mg (N = 449), ITT Population
[12] = Plecanatide 6 mg (N = 471), All Randomized (includes Duplicate Patients)

Asn^1-Asp^2-Glu^3-Cys^4-Glu^5-Leu^6-Cys^7-Val^8-Asn^9-Val^10-Ala^11-Cys^12-Thr^13-Gly^14-Cys^15-Leu^16 (NDECELCVNVACTGCL; disulfide 4-12, 7-15) [Plecanatide]
Week 1 Change from Baseline in Stool Consistency, Difference from Placebo ([1]; 3 mg): 0.92 | Week 1 Change from Baseline in Stool Consistency, LS Mean (SE) ([1]; 3 mg): 1.50 (0.071) | stool consistency after discontinuation of treatment ([1]; 3.0 mg and 6.0 mg, post-treatment period): returned towards baseline with no indication of an exaggerated or rebound effect | Week 1 Change from Baseline in Stool Consistency, Mean (SD) ([1]; 3 mg, n 414): 1.57 (1.563) | Change from Baseline in Stool Consistency, Difference from Placebo ([1]; 3 mg): 0.76 | Change from Baseline in Stool Consistency (BSFS), LS Mean (SE) ([1]; 3 mg): 1.53 (0.058) | mean increase from baseline in BSFS score ([1]; 3.0 mg): 1.53 | Week 1 Change from Baseline in Stool Consistency, Difference from Placebo ([1]; 6 mg): 0.85 | Week 1 Change from Baseline in Stool Consistency, LS Mean (SE) ([1]; 6 mg): 1.42 (0.072) | Week 1 Change from Baseline in Stool Consistency, Mean (SD) ([1]; 6 mg, n 399): 1.42 (1.640) | Change from Baseline in Stool Consistency, Difference from Placebo ([1]; 6 mg): 0.75 | Change from Baseline in Stool Consistency (BSFS), LS Mean (SE) ([1]; 6 mg): 1.52 (0.059) | mean increase from baseline in BSFS score ([1]; 6.0 mg): 1.52 | Week 1 Change from Baseline in Stool Consistency, Mean (SD) ([1]; Active Combined, n 813): 1.49 (1.602) | Durable Overall CSBM Responders, % [2, 4]: 20.4% | Non-Responders, % [2, 4]: 79.6% | Durable Overall CSBM Responders, % [2, 5]: 20.1% | Non-Responders, % [2, 5]: 79.9% | Durable Overall CSBM Responders, % [2, 6]: 19.7% | Non-Responders, % [2, 6]: 80.3% | Durable Overall CSBM Responders, % [2, 7]: 20.5% | Non-Responders, % [2, 7]: 79.5% | Durable Overall CSBM Responders, % [2, 8]: 20.1% | Non-Responders, % [2, 8]: 79.9% | Durable Overall CSBM Responders, % [2, 9]: 19.8% | Non-Responders, % [2, 9]: 80.2% | Difference in Proportions (adjusted), durable overall CSBM responders ([2]; Plecanatide 3 mg minus Placebo, All Randomized (includes Duplicate Patients)): 0.076 | Difference in Proportions (adjusted), durable overall CSBM responders ([2]; Plecanatide 3 mg minus Placebo, ITT Population): 0.073 | Difference in Proportions (adjusted), durable overall CSBM responders ([2]; Plecanatide 3 mg minus Placebo, ITT Population-Excluding Duplicate Patients): 0.075 | Odds Ratio (adjusted), durable overall CSBM responders ([2]; Plecanatide 3 mg, All Randomized (includes Duplicate Patients)): 0.562 | Odds Ratio (adjusted), durable overall CSBM responders ([2]; Plecanatide 3 mg, ITT Population): 0.586 | Odds Ratio (adjusted), durable overall CSBM responders ([2]; Plecanatide 3 mg, ITT Population-Excluding Duplicate Patients): 0.583 | Durable Overall CSBM Responders, % [2, 10]: 20.3% | Non-Responders, % [2, 10]: 79.7% | Durable Overall CSBM Responders, % [2, 11]: 20.0% | Non-Responders, % [2, 11]: 80.0% | Durable Overall CSBM Responders, % [2, 12]: 19.5% | Non-Responders, % [2, 12]: 80.5% | Difference in Proportions (adjusted), durable overall CSBM responders ([2]; Plecanatide 6 mg minus Placebo, All Randomized (includes Duplicate Patients)): 0.074 | Difference in Proportions (adjusted), durable overall CSBM responders ([2]; Plecanatide 6 mg minus Placebo, ITT Population): 0.072 | Difference in Proportions (adjusted), durable overall CSBM responders ([2]; Plecanatide 6 mg minus Placebo, ITT Population-Excluding Duplicate Patients): 0.073 | Odds Ratio (adjusted), durable overall CSBM responders ([2]; Plecanatide 6 mg, All Randomized (includes Duplicate Patients)): 0.571 | Odds Ratio (adjusted), durable overall CSBM responders ([2]; Plecanatide 6 mg, ITT Population): 0.587 | Odds Ratio (adjusted), durable overall CSBM responders ([2]; Plecanatide 6 mg, ITT Population-Excluding Duplicate Patients): 0.589 | Discontinuation before Week 12 (EOT), primary reason Insufficient Therapeutic Effect, (%) ([3]; 3 mg (N = 470)): (0.6) % | Discontinuation before Week 12 (EOT), primary reason Insufficient Therapeutic Effect, (%) ([3]; 6 mg (N = 471)): (0.2) %
